From ChEMBL document CHEMBL5154911, “Palmatine Derivatives as Potential Antiplatelet Aggregation Agents via Protein Kinase G/Vasodilator-Stimulated Phosphoprotein and Phosphatidylinositol 3-Kinase/Akt Phosphorylation” (J Med Chem, 2022)
The source made the active and inactive calls. The rule behind the calls is not given here.

Assays:
Mus musculus [1] = test: Antiplatelet activity against ADP-induced C57BL/6J mouse platelet aggregation assessed as reduction in integrin alphaIIbbeta3 surface level at 20 mg/kg, po measured after 2 weeks by flow cytometry analysis; format: functional, organism-based
[2] = Antiplatelet activity against ADP-induced C57BL/6J mouse platelet aggregation assessed as maximal aggregration rate at 10 uM preincubated for 10 mins followed by ADP addition relative to control; format: functional
Platelet [3] = test: Inhibition of ADP-induced Akt activation in C57BL/6J mouse platelet assessed as reduction of AKT phosphorylation at Ser473 by western blot analysis; format: cell-based
Mus musculus [4] = test: Antiplatelet activity against ADP-induced C57BL/6J mouse platelet aggregation assessed as reduction in P-selectin surface levels at 20 mg/kg, po measured after 2 weeks by flow cytometry analysis; format: functional, organism-based
Platelet [5] = test: Inhibition of ADP-induced Akt activation in C57BL/6J mouse platelets assessed as reduction in phosphorylation Akt level at Ser473 at 20 mg/kg, po measured after 2 weeks by western blot analysis; format: organism-based
Mus musculus [6] = test: Antiplatelet activity against ADP-induced C57BL/6J mouse platelet aggregation assessed as inhibition of platelet aggregation at 20 mg/kg, po measured after 2 weeks; format: functional, organism-based
Mus musculus [7] = test: Antithrombotic activity in BALB/c mouse model of carrageenan-induced thrombus formation assessed as inhibition of thrombosis rate in tail at 20 mg/kg, iv measured after 14 days; format: functional, organism-based; conditions: time 14.0 day
Lung [8] = test: Antithrombotic activity in BALB/c mouse model of carrageenan-induced thrombus formation assessed as reduced thrombus formation in lung at 20 mg/kg, iv measured after 14 days by H and E staining based assay; format: functional, organism-based; conditions: time 14.0 day
Mus musculus [9] = test: Antithrombotic activity in BALB/c mouse model of carrageenan-induced thrombus formation assessed as reduced serum P-selectin level at 20 mg/kg, iv measured after 14 days by ELISA; format: functional, organism-based; conditions: time 14.0 day
Platelet [10] = test: Inhibition of ADP-induced Akt activation in C57BL/6J mouse platelet assessed as reduction of AKT phosphorylation at Ser473 at 0.5 to 20 uM by western blot analysis; format: cell-based; conditions: dose 0.5-20 µM, DDE = dose-dependent effect
[11] = Metabolic stability in human liver microsomes assessed as half life at 1 uM incubated upto 60 min in presence of NADPH by LC-MS/MS analysis; format: ADME, Microsome
[12] = Metabolic stability in Sprague-Dawley rat liver microsomes assessed as half life at 1 uM incubated upto 60 min in presence of NADPH by LC-MS/MS analysis; format: ADME, Microsome
[13] = Metabolic stability in CD-1 mouse liver microsomes assessed as half life at 1 uM incubated upto 60 min in presence of NADPH by LC-MS/MS analysis; format: ADME, Microsome
[14] = Metabolic stability in human liver microsomes assessed as microsomal intrinsic clearance at 1 uM incubated upto 60 min in presence of NADPH by LC-MS/MS analysis; format: ADME, Microsome; conditions: read-out: CLH
[15] = Metabolic stability in Sprague-Dawley rat liver microsomes assessed as microsomal intrinsic clearance at 1 uM incubated upto 60 min in presence of NADPH by LC-MS/MS analysis; format: ADME, Microsome; conditions: read-out: CLH
[16] = Metabolic stability in CD-1 mouse liver microsomes assessed as microsomal intrinsic clearance at 1 uM incubated upto 60 min in presence of NADPH by LC-MS/MS analysis; format: ADME, Microsome; conditions: read-out: CLH
[17] = Metabolic stability in human liver microsomes assessed as liver intrinsic clearance at 1 uM incubated upto 60 min in presence of NADPH by LC-MS/MS analysis; format: ADME, Microsome; conditions: 1 h
[18] = Metabolic stability in Sprague-Dawley rat liver microsomes assessed as liver intrinsic clearance at 1 uM incubated upto 60 min in presence of NADPH by LC-MS/MS analysis; format: ADME, Microsome; conditions: 1 h
[19] = Metabolic stability in CD-1 mouse liver microsomes assessed as liver intrinsic clearance at 1 uM incubated upto 60 min in presence of NADPH by LC-MS/MS analysis; format: ADME, Microsome; conditions: 1 h
[20] = Metabolic stability in human liver microsomes assessed as compound remaining at 1 uM measured after 60 mins in presence of NADPH by LC-MS/MS analysis; format: ADME, Microsome; conditions: read-out: Stability
[21] = Metabolic stability in Sprague-Dawley rat liver microsomes assessed as compound remaining at 1 uM measured after 60 mins in presence of NADPH by LC-MS/MS analysis; format: ADME, Microsome; conditions: read-out: Stability
[22] = Metabolic stability in CD-1 mouse liver microsomes assessed as compound remaining at 1 uM measured after 60 mins in presence of NADPH by LC-MS/MS analysis; format: ADME, Microsome; conditions: read-out: Stability
[23] = Cytotoxicity against human HUVEC cells assessed as cell vaibility at 100 uM by MTS assay; format: toxicity, cell-based; conditions: read-out: Activity
Platelet [24] = test: Antiplatelet activity against ADP-induced C57BL/6J mouse platelet aggregation assessed as reduction in integrin alphaIIbbeta3 surface levels by measuring increase median fluorescence intensities at 10 uM incubated for 10 min by flow cytometry analysis; format: functional, cell-based
Platelet [25] = test: Antiplatelet activity against ADP-induced C57BL/6J mouse platelet aggregation assessed as reduction in P-selectin surface levels by measuring increase median fluorescence intensities at 10 uM incubated for 10 min by flow cytometry analysis; format: functional, cell-based
Mus musculus [26] = test: Antiplatelet activity against ADP-induced C57BL/6J mouse platelet aggregation assessed as reduction in P-selectin surface levels at 100 mg/kg, po measured after 2 weeks by flow cytometry analysis; format: functional, organism-based
Mus musculus [27] = test: Antiplatelet activity against ADP-induced C57BL/6J mouse platelet aggregation assessed as reduction in integrin alphaIIbbeta3 surface level at 100 mg/kg, po measured after 2 weeks by flow cytometry analysis; format: functional, organism-based
Platelet [28] = test: Inhibition of ADP-induced Akt activation in C57BL/6J mouse platelets assessed as reduction in phosphorylation Akt level at Ser473 at 100 mg/kg, po measured after 2 weeks by western blot analysis; format: organism-based
Mus musculus [29] = test: Antithrombotic activity in BALB/c mouse model of carrageenan-induced thrombus formation assessed as inhibition of thrombosis rate in tail at 100 mg/kg, iv measured after 14 days; format: functional, organism-based; conditions: time 14.0 day
[30] = Antiplatelet activity against ADP-induced C57BL/6J mouse platelet aggregation assessed as inhibition of platelet aggregation at 10 uM preincubated for 10 mins followed by ADP addition relative to control; format: functional; parameters: scale not given: the % may be the effect or the level left
Mus musculus [31] = test: Antithrombotic activity in BALB/c mouse model of carrageenan-induced thrombus formation assessed as reduced thrombus area in tail at 100 mg/kg, iv measured after 14 days by H and E staining based assay; format: functional, organism-based; conditions: time 14.0 day
Platelet [32] = test: Antiplatelet activity against ADP-induced C57BL/6J mouse platelet aggregation assessed as reduction on platelet aggregation at 2.5 to 10 uM preincubated for 10 mins followed by ADP addition; format: functional, cell-based; conditions: dose 2.5-10 µM, DDE = dose-dependent effect
[33] = Acute toxicity in po dosed Kunming mouse assessed as lethal dose measured after 14 days; format: organism-based; conditions: in vivo, time 14 day
[34] = Acute toxicity in Kunming mouse assessed as effect on glutamic oxalacetic transaminase at 250 to 1000 mg/kg, po measured after 14 days; format: organism-based; conditions: in vivo, 336 h, dose 250-1000 mg/kg, time 14 day
[35] = Acute toxicity in Kunming mouse assessed as effect on glutamic pyruvic transaminase at 250 to 1000 mg/kg, po measured after 14 days; format: organism-based; conditions: in vivo, 336 h, dose 250-1000 mg/kg, time 14 day
[36] = Acute toxicity in Kunming mouse assessed as effect on blood urea nitrogen at 250 to 1000 mg/kg, po measured after 14 days; format: organism-based; conditions: in vivo, 336 h, dose 250-1000 mg/kg, time 14 day
[37] = Acute toxicity in Kunming mouse assessed as effect on creatine at 250 to 1000 mg/kg, po measured after 14 days; format: organism-based; conditions: in vivo, 336 h, dose 250-1000 mg/kg, time 14 day
Mus musculus [38] = test: Antiplatelet activity against ADP-induced C57BL/6J mouse platelet aggregation assessed as inhibition of platelet aggregation at 100 mg/kg, po measured after 2 weeks; format: functional, organism-based
Lung [39] = test: Antithrombotic activity in BALB/c mouse model of carrageenan-induced thrombus formation assessed as reduced thrombus formation in lung at 100 mg/kg, iv measured after 14 days by H and E staining based assay; format: functional, organism-based; conditions: time 14.0 day
Mus musculus [40] = test: Antithrombotic activity in BALB/c mouse model of carrageenan-induced thrombus formation assessed as reduced serum P-selectin level at 100 mg/kg, iv measured after 14 days by ELISA; format: functional, organism-based; conditions: time 14.0 day
[41] = Binding affinity to sensorchip-immobilized PI3K (unknown origin) by surface plasmon resonance analysis; parameters: species or system Homo sapiens
Platelet [42] = test: Antiplatelet activity against ADP-induced C57BL/6J mouse platelet aggregation assessed as increase in VASP phosphorylation level at 0.5 to 20 uM by western blotting analysis; format: functional, cell-based; conditions: dose 0.5-20 µM

SMILES: CC(=O)Oc1ccccc1C(=O)O [ASPIRIN]
- Activity (Mus musculus [1]): Active
- %max [2]: 26.4%
- inhibition (Platelet [3]): Active
- Activity (Mus musculus [4]): Active
- inhibition (Platelet [5]): Active
- Activity (Mus musculus [6]): Active
- Activity (Mus musculus [7]): Active
- Activity (Lung [8]): Active
- Activity (Mus musculus [9]): Active

SMILES: CCCOc1c(OC)ccc2cc3[n+](cc12)CCc1cc(OC)c(OC)cc1-3.[Br-]
- inhibition (Platelet [10]): Dde
- %max [2]: 26.9%
- half-life at 1 µM [11]: > 2.42 h
- half-life at 1 µM [12]: > 2.42 h
- half-life at 1 µM [13]: 0.745 h
- microsomal CLint at 1 µM [14]: < 9.6 µL/min/mg
- microsomal CLint at 1 µM [15]: < 9.6 µL/min/mg
- microsomal CLint at 1 µM [16]: 31 µL/min/mg
- CLH [17]: < 8.6 mL/min/kg
- CLH [18]: < 17.3 mL/min/kg
- CLH [19]: 123 mL/min/kg
- remaining at 1 h, 1 µM [20]: 117%
- remaining at 1 h, 1 µM [21]: 79%
- remaining at 1 h, 1 µM [22]: 39%
- viability at 100 µM [23]: 90%
- Activity (Platelet [24]): Active
- Activity (Platelet [25]): Active
- inhibition (Platelet [3]): Active
- Activity (Mus musculus [26]): Active
- Activity (Mus musculus [27]): Active
- inhibition (Platelet [28]): Active
- inhibition (Mus musculus [29]): Active
- Activity [30]: 37.8%
- inhibition (Mus musculus [31]): Active
- Activity (Platelet [32]): Dde
- LD50 at 336 h [33]: 1000 mg/kg
- Activity [34]: Non-Toxic
- Activity [35]: Non-Toxic
- Activity [36]: Non-Toxic
- Activity [37]: Non-Toxic
- Activity (Mus musculus [38]): Active
- Activity (Lung [39]): Active
- Activity (Mus musculus [40]): Active
- Kd [41]: 25.5 µM
- Activity (Platelet [42]): Active
